“Also recorded” adds a separate entry of the source. Where two headings read alike, the source gives them in different places.

The format of experiment [1] is biochemical. The settings on record: for response to 30 mM K2SO4 after prior disruption of the lipoparticle structure: gramicidin (1 uM) or melittin (5 uM).
Experiment [2] addresses T1, Shaker(Δ6-46)T449V (Drosophila melanogaster, UniProt P08510, DEL6-46/T449V).
T1 construct: made in house; host or cells: 293 / HEK-293 cells co-transfected with MLV Gag
The experiment is classed as biochemical. The settings on record: for Shaker activity: iberiotoxin (10 uM), margatoxin (10 uM); for lipoparticle Shaker activity: pre-treated with 10 nM toxin, duplicate experiments.

In experiment [3] the target is 5HT3a cation channel (Homo sapiens, UniProt P46098). Format: biochemical.
5HT3a cation channel, sequence (P46098 24-478): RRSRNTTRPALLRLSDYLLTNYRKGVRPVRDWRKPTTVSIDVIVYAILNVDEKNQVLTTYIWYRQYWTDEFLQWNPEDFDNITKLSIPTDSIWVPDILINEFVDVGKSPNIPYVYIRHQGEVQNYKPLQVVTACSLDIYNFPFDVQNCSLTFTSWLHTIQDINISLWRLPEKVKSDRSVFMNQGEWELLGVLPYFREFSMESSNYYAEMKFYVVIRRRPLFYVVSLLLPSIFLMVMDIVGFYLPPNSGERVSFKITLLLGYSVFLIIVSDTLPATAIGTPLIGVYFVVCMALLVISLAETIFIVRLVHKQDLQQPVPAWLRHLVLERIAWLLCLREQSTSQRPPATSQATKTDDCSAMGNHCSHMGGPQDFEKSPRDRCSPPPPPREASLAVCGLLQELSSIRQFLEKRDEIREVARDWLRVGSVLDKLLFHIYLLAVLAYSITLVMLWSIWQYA
The target of experiment [4] is A/M2 Udorn72 (Influenza A virus, UniProt P0DOF5). The experiment is classed as biochemical. The settings on record: pH 4.5.
A/M2 Udorn72, sequence (P0DOF5 whole entry, looked up): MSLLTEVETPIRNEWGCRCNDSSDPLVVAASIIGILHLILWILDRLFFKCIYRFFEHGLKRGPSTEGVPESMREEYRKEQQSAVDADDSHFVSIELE
Experiment [5] relates to M2. The settings on record: cited from earlier work.
The target of experiment [6] is A/M2/HK156/94 (Influenza A virus, UniProt O70632). Kind of experiment: biochemical. The experiment is classed as biochemical. The settings on record: for H+ transport across VLP membranes (fluorescence): pH 4.5.
A/M2/HK156/94, sequence (O70632 whole entry, looked up): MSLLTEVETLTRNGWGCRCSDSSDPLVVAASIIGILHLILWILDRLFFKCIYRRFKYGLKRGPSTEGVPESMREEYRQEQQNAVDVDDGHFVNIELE
Experiment [7] has as its target Shaker (Drosophila melanogaster, UniProt P08510). The settings on record: cited from earlier work.
Experiment [8] concerns the target T2, Shaker T449K mutant (Drosophila melanogaster, UniProt P08510, T449K).
T2 construct: made in house
Format: biochemical. Conditions: 10 nM CHTX pre-treatment.

Experiment [9] deals with M2 viral ion channel, Influenza A (Udorn/72) virions (Influenza A virus, UniProt P0DOF5). The experiment is classed as biochemical.
M2 viral ion channel, Influenza A (Udorn/72) virions, sequence (P0DOF5 whole entry, looked up): as the sequence (P0DOF5 whole entry, looked up) above
Experiment [10] addresses T3, human KCNQ2/3 channel (Homo sapiens, UniProt O43525+O43526).
T3 construct: made in house
Format: biochemical.

T1 sequence (P08510 with tags, fused parts or gaps DEL6-46/T449V): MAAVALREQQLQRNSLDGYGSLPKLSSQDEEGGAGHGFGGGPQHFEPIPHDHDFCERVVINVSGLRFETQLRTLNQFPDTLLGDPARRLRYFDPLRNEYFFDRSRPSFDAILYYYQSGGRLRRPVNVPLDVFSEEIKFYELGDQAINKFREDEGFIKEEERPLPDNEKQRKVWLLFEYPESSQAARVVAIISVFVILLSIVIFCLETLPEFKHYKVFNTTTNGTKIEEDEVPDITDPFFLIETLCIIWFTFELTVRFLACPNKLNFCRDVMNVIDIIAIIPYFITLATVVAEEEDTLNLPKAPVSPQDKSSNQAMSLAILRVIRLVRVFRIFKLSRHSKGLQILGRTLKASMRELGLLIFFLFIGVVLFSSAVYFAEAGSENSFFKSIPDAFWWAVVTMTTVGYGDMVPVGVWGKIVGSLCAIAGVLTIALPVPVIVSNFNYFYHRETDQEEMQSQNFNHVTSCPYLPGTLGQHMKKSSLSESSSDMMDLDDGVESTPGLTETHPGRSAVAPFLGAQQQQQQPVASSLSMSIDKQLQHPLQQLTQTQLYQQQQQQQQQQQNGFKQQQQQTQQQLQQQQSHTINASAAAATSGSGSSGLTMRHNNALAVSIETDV
T2 sequence (P08510 whole entry T449K): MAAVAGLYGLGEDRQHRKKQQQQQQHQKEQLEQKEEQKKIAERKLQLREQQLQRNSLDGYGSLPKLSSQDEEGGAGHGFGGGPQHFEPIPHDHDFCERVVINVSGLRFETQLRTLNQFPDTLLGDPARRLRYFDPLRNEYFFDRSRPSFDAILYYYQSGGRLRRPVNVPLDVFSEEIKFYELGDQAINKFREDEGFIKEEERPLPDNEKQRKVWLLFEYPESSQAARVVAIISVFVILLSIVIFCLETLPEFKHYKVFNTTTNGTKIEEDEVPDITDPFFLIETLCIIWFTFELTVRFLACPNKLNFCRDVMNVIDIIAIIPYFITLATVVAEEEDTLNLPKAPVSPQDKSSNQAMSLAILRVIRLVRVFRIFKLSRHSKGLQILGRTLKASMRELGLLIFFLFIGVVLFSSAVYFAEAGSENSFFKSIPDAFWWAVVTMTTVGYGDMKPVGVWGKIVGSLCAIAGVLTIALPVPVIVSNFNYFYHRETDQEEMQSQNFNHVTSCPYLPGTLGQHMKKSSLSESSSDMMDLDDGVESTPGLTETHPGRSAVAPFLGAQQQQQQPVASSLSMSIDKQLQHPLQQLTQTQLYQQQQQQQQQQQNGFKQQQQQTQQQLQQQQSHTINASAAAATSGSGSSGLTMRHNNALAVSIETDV
T3 sequence (O43526 whole entry): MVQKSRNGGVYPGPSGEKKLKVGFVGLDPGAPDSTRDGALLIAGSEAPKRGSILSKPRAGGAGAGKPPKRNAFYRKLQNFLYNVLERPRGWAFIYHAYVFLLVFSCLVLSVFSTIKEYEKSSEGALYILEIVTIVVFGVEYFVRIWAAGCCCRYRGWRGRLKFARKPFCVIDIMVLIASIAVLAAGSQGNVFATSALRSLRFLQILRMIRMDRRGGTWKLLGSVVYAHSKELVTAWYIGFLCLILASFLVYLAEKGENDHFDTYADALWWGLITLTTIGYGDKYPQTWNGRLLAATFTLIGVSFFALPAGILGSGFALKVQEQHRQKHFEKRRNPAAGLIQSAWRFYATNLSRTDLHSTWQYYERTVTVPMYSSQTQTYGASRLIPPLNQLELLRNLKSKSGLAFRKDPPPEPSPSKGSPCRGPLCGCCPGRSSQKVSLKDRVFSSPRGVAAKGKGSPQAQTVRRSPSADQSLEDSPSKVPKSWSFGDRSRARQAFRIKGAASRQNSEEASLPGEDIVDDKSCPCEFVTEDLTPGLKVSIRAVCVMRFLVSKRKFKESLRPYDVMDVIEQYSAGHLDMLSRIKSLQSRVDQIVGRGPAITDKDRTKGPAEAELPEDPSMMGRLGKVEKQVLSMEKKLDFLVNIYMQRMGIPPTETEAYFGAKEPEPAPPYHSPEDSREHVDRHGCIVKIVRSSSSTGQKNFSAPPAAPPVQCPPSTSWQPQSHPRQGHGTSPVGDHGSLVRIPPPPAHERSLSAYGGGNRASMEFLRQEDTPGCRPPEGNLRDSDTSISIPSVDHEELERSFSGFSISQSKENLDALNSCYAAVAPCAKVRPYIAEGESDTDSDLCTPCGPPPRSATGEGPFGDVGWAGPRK
T3 sequence (O43525 whole entry): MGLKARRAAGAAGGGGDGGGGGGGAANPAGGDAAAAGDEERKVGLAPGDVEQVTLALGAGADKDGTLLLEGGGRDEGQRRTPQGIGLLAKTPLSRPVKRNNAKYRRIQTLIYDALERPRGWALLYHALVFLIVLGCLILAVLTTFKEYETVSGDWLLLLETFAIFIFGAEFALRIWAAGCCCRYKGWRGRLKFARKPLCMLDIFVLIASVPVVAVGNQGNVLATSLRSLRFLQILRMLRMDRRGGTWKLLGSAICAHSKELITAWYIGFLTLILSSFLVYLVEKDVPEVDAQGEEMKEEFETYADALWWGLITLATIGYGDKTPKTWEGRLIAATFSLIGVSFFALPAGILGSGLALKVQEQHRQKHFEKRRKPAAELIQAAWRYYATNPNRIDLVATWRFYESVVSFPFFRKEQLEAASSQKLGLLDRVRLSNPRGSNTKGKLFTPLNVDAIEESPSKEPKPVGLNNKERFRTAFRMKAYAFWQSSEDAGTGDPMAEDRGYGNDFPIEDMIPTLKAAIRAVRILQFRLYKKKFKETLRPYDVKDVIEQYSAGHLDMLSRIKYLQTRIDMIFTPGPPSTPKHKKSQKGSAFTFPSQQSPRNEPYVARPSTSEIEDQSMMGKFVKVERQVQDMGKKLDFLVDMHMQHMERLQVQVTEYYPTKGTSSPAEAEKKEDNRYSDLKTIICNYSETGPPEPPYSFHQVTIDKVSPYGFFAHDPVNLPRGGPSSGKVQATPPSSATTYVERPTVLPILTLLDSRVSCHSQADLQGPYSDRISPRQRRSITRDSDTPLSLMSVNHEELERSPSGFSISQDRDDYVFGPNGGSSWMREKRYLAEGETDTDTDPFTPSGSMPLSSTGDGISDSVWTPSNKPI
Shaker, sequence (P08510 whole entry): as the sequence (P08510 whole entry T449K) above, with K449T counted along it

On to `CC(C)[C@@H]1NC(=O)[C@H](C)OC(=O)[C@@H](C(C)C)NC(=O)[C@@H](C(C)C)OC(=O)[C@H](C(C)C)NC(=O)[C@H](C)OC(=O)[C@@H](C(C)C)NC(=O)[C@@H](C(C)C)OC(=O)[C@H](C(C)C)NC(=O)[C@H](C)OC(=O)[C@@H](C(C)C)NC(=O)[C@@H](C(C)C)OC1=O` [Valinomycin, valinomycin], for which the “fluorescent signal on K+ exposure (normalized to baseline)” value in experiment [1] (valinomycin-treated null-lipoparticles, twelve replicates, microplate, mean+/−standard deviation, untreated 1.023+/−0.009) is listed as 1.347+/−0.036.

Regarding gramicidin, the “response to 30 mM K2SO4 after prior disruption of the lipoparticle structure” value in [1] was “eliminated the response”.

In the case of “margatoxin (TIINVKCTSPKQCLPPCKAQFGQSAGAKCMNGKCKCYPH; UniProt P40755 1-39, looked up)”, in experiment [2], the Shaker activity entry is on record as “did not inhibit Shaker activity”. Besides, the “lipoparticle Shaker activity” value in experiment [2] (30 mM K2SO4) was “do not influence”.

As for `NCCc1c[nH]c2ccc(O)cc12` [serotonin], the “dependence of the fluorescent signal on the ligand” value in experiment [3] is “dependent upon the presence; also recorded: omission of the ion channel ligand, serotonin, from the assay mix resulted in no change in fluorescence intensity”.

For `COc1cc2c3cc1Oc1cc(ccc1O)C[C@@H]1c4c(cc(OC)c(O)c4Oc4ccc(cc4)C[C@@H]3N(C)CC2)CC[N+]1(C)C` [tubocurarine], the “fluorescent signal on Na+ addition” value in [3] is listed as “capable of inhibiting the fluorescent signal; also recorded: inhibition”.

On to `CC(N)C12CC3CC(CC(C3)C1)C2` (stereo not drawn) [rimantadine], for which, in experiment [4], the “H+ transport fluorescence signal” value is recorded as “inhibited the fluorescent response; also recorded: abrogated the subsequent movement of H^+; also recorded: completely abrogated”. The “potency relative to amantadine reported in the literature” value in experiment [5] (more potent than amantadine) is “approximately 10 times”. In experiment [6], the “Hillslope of inhibition curve” value was −1.1, inhibition was half-maximal at 180 nM (IC50), the “mean change in fluorescence resulting from MES addition” value is −432±167 and the “H+ transport across VLP membranes (fluorescence)” value was “abrogated the subsequent movement of H^+”.

Turning to charybdotoxin [CHTX], the “CHTX inhibition of Shaker in cells reported in the literature” value in experiment [7] was about 3.6 nM. The “effect of channel inhibitor on valinomycin-mediated K+ movement (specificity control)” value in experiment [1] (null-lipoparticles pre-treated with 1 uM valinomycin, CHTX up to 10 nM, tubocurarine) is “did not influence; also recorded: had no effect”. For the same molecule, in experiment [8], the “fluorescent signal on K+ addition” value is on record as “capable of inhibiting the fluorescent signal; also recorded: inhibition”. The “Shaker conductance of K+ across lipoparticle membranes” value in [2] (10 nM CHTX pre-incubation, 30 mM K2SO4) is recorded as “completely inhibited”. Besides, in [2] (CHTX 100 pM to 10 nM, 10 ug Shaker plasmid), the “inhibition of the fluorescent signal over a concentration range” value is on record as “concentration-dependent inhibition”. The “low concentration at which inhibition of membrane depolarization was evident” value in [2] (lipoparticles produced using 10 ug Shaker plasmid, 30 mM K2SO4) came out at 0.1 nM.

For “iberiotoxin (QFTDVDCSVSKECWSVCKDLFGVDRGKCMGKKCRCYQ; UniProt P24663 1-37, looked up)”, in experiment [2], the Shaker activity entry is “did not inhibit Shaker activity”. Further, the “lipoparticle Shaker activity” value in experiment [2] (30 mM K2SO4) is “do not influence”.

With `NC12CC3CC(CC(C3)C1)C2` [amantadine], the “H+ transport fluorescence signal” value in experiment [4] is given as “inhibited the fluorescent response; also recorded: abrogated the subsequent movement of H^+; also recorded: completely abrogated”. Also, the IC50 in experiment [5] (other measures of M2 function, such as plaque assay, read-out: IC50 reported in the literature) was 1000 to 10000 nM. Also, the “fluorescent signal (membrane potential response) on low pH challenge” value in experiment [9] is reported as “attenuated the fluorescent signal in a dose-dependent fashion; also recorded: inhibited”. In experiment [6], the “Hillslope of inhibition curve” value is −0.71; half-maximal inhibition (IC50) was put at 980 nM; the “mean change in fluorescence resulting from MES addition” value is listed as 314±206; the “H+ transport across VLP membranes (fluorescence)” value is “abrogated the subsequent movement of H^+; also recorded: in the absence, but not in the presence of amantadine”.

For the molecule `CC[C@H](C)[C@H](NC(=O)CN)C(=O)NCC(=O)N[C@@H](C)C(=O)N[C@H](C(=O)N[C@@H](CC(C)C)C(=O)N[C@@H](CCCCN)C(=O)N[C@H](C(=O)N[C@@H](CC(C)C)C(=O)N[C@H](C(=O)N[C@H](C(=O)NCC(=O)N[C@@H](CC(C)C)C(=O)N1CCC[C@H]1C(=O)N[C@@H](C)C(=O)N[C@@H](CC(C)C)C(=O)N[C@H](C(=O)N[C@@H](CO)C(=O)N[C@@H](Cc1c[nH]c2ccccc12)C(=O)N[C@H](C(=O)N[C@@H](CCCCN)C(=O)N[C@@H](CCCNC(=N)N)C(=O)N[C@@H](CCCCN)C(=O)N[C@@H](CCCNC(=N)N)C(=O)N[C@@H](CCC(N)=O)C(=O)N[C@@H](CCC(N)=O)C(N)=O)[C@@H](C)CC)[C@@H](C)CC)[C@@H](C)O)[C@@H](C)O)C(C)C)C(C)C` [melittin], the “response to 30 mM K2SO4 after prior disruption of the lipoparticle structure” value in experiment [1] is “eliminated the response”.

Turning to `[Ba+2].[Cl-].[Cl-]` [BaCl2], the “fluorescent signal on K+ addition” value in experiment [10] (20 mM BaCl2) is on record as “inhibition”; in experiment [10] (120 mM BaCl2 pre-treatment), “capable of inhibiting the fluorescent signal”.

These data come from patent publication US8377691B2 (priority 2006, dated 2013).
